In ChEMBL document CHEMBL1155088, “A new sesquiterpene lactone from the roots of Saussurea lappa: structure-anticancer activity study” (Bioorg Med Chem Lett, 2008) one finds Activity and IC50 data, which are given here for six compounds.

≈ marks a conversion by molar mass, not a printed value. Calls of active or inactive are those of the source. The rule behind the calls is not given here.

What all share (assay type): functional, cell-based
In test [1] the test system is A-431. Nature of the test: Cytotoxicity against human A431 cells after 48 hrs by MTT assay. Background: Tetrazolium assays rely on reduction of a dye to a coloured formazan, in cell work by metabolically active cells.
Test [2] has as its system MCF7. Nature of the test: Cytotoxicity against human MCF7 cells after 48 hrs by MTT assay. Particulars: MCF7, 48 h.
Test [3] has as its system A549. The experiment in a line: Cytotoxicity against human A549 cells after 48 hrs by MTT assay.
For test [4], the system named is COLO 205. The experiment in a line: Cytotoxicity against human COLO205 cells after 48 hrs by MTT assay. Particulars: for IC50: COLO 205, 48 h.

One may read the IC50 as the concentration that gives 50% inhibition. A high value points to a need for much substance. For `C/C1=C\[C@H]2OC(=O)[C@@H](C)[C@@H]2CC/C(C)=C/CC1` [DIHYDRO COSTUNOLIDE], the outcome in test [1] and in test [3] was inactive. The half-inhibitory concentration (IC50) worked out at 57.9 µg/mL (≈ 247 µM) in test [2] and 134 µg/mL (≈ 572 µM) in test [4].

On to `COC[C@@H]1C(=O)O[C@H]2[C@H]1CC[C@@]1(C)CCCC3(OCOO3)[C@H]21` (some centres undefined), for which the outcome in test [1], in test [3] and in test [4] was inactive. Also, in test [2], the concentration for half-maximal inhibition (IC50) was 180 µg/mL (≈ 577 µM).

Turning to `COC[C@@H]1C(=O)O[C@@H]2/C=C(\C)CC/C=C(\C)CC[C@@H]12`, the result in test [1] and in test [3] was inactive. Besides, the values for the IC50 in test [2] and in test [4] were 75 µg/mL (≈ 284 µM) and 220 µg/mL (≈ 832 µM), respectively.

On to `C=C1C(=O)O[C@@H]2/C=C(\C)CCC[C@H](C)CC[C@H]12` [ISODIHYDROCOSTUNOLIDE], for which the IC50 stood at 107 µg/mL (≈ 457 µM) in test [1] (A-431, 48 h); 35 µg/mL (≈ 150 µM) in test [2]; 125 µg/mL (≈ 533 µM) in test [3] (A549, 48 h); 27 µg/mL (≈ 115 µM) in test [4].

For `COC[C@@H]1C(=O)O[C@H]2[C@H]1CC[C@@]1(C)CCCC(=O)[C@H]21`, the outcome in test [1], in test [3] and in test [4] was inactive. The compound also returned a 50% inhibitory concentration (IC50) in test [2] of 103 µg/mL (≈ 388 µM).

On to `C=C1CCC[C@]2(C)CC[C@@H]3[C@H](OC(=O)[C@H]3COC)[C@@H]12`, for which the result in test [1] and in test [3] was inactive. Besides, the IC50 in test [2] was determined as 88.5 µg/mL (≈ 335 µM); in test [4], 110 µg/mL (≈ 415 µM).
